Measured values reported in US20140073637A1, “AMINO-SUBSTITUTED-ALKYLOXY-BENZO[E]PYRIDO[4,3-B]INDOLE DERIVATIVES AS NEW POTENT KINASE INHIBITORS” (INSTITUT CURIE, priority 2011, published 2014).
Read-outs that look alike come from different tables or passages of the source.

Key:
Experiment in all cases: Kinase profiling in vitro at 1 μM
Type in all cases: biochemical
[1] = biological target: Chk2 (Homo sapiens, UniProt O96017)
Protocol: (§1) The specificity of C14 was tested, in vitro, against 121 kinases representative of the kinome. Assays run in duplicate, at the concentration of 1 μM, were performed by MRC (Dundee, UK). Results are represented in FIG. 1. The main targets are highlighted in FIG. 1B.
(§2) In addition, the percentage of remaining activity of recombinant kinases Aurora kinases A and B and Checkpoint kinases 1 and 2 at the concentration of 1 μM of C1, C2 and C14 have been determined.
(§3) The profiling was performed at the MRC (Dundee University), in duplicate, on a set of 121 kinases. The panel is representative of the major different classes of kinases. Compounds were used at the concentration of 1 μM. In vitro, IC50 were determined on recombinant kinases by Reaction biology Corp (USA).

[2] = biological target: T1, CHK1 (Homo sapiens, UniProt O14757)
T1 sequence (O14757 1-476): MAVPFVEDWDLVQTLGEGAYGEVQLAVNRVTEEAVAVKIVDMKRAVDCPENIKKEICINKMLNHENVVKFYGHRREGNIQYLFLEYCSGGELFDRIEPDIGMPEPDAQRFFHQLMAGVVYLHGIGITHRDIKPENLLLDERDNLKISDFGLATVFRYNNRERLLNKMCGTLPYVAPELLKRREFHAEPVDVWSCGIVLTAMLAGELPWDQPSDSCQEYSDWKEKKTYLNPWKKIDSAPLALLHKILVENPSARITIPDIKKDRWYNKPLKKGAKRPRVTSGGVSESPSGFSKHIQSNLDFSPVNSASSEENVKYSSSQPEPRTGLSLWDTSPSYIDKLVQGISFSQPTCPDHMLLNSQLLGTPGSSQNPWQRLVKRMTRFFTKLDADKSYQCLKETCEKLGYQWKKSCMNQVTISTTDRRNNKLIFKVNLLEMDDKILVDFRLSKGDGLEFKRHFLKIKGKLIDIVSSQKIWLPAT
Protocol: as §1, §2, §3

[3] = biological target: Aurora B (Homo sapiens, UniProt Q96GD4)
Sequence of Aurora B (Q96GD4 whole entry): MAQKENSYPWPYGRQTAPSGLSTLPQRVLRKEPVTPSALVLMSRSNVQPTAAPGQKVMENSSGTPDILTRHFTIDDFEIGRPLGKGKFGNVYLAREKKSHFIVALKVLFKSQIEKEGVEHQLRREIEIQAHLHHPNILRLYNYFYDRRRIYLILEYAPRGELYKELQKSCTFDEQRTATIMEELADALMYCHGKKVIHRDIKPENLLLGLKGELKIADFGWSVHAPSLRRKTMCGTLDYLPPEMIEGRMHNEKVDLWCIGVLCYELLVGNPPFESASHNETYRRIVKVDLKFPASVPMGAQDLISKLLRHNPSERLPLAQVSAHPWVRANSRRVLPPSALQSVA
Protocol: as §1, §2, §3

[4] = tested on: Phk; conditions: 1 microMolar in vitro
Protocol: as §3, with “The specificity of C14 was tested, in vitro, against 121 kinases representative of the kinome. Assays run in duplicate, at the concentration of 1 μM, were performed by MRC (Dundee, UK). Results are represented in FIG. 1. The main targets are highlighted in FIG. 1B. The profiling” for “The profiling”

[5] = biological target: Jak2 (Homo sapiens, UniProt O60674); conditions: 1 microMolar in vitro, read-out: Percent of remaining activity
Protocol: as §3, with “The specificity of C14 was tested, in vitro, against 121 kinases representative of the kinome. Assays run in duplicate, at the concentration of 1 μM, were performed by MRC (Dundee, UK). Results are represented in FIG. 1. The main targets are highlighted in FIG. 1B. The profiling” for “The profiling”

[6] = biological target: FGFR1 (Homo sapiens, UniProt P11362); conditions: 1 microMolar in vitro, read-out: Percent of remaining activity
Protocol: as §3, with “The specificity of C14 was tested, in vitro, against 121 kinases representative of the kinome. Assays run in duplicate, at the concentration of 1 μM, were performed by MRC (Dundee, UK). Results are represented in FIG. 1. The main targets are highlighted in FIG. 1B. The profiling” for “The profiling”

[7] = biological target: MELK (Homo sapiens, UniProt Q14680); conditions: 1 microMolar in vitro, read-out: Percent of remaining activity
Sequence of MELK (Q14680 whole entry, species assumed): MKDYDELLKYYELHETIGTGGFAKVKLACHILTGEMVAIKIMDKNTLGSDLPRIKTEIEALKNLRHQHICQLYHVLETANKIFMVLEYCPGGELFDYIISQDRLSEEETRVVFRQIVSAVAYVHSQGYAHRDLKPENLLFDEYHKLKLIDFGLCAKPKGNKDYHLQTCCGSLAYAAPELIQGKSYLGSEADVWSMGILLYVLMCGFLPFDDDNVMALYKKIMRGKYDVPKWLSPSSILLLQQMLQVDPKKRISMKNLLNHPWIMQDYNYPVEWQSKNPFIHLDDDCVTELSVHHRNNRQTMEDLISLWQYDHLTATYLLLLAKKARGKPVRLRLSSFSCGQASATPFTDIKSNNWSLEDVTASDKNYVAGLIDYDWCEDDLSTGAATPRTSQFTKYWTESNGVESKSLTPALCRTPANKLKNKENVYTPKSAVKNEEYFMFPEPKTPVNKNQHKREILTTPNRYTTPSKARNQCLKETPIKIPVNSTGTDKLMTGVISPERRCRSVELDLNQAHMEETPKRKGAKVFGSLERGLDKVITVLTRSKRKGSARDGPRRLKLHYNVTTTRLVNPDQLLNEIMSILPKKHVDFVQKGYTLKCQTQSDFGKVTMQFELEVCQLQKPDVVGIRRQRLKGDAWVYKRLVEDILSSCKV
Protocol: as §3, with “The specificity of C14 was tested, in vitro, against 121 kinases representative of the kinome. Assays run in duplicate, at the concentration of 1 μM, were performed by MRC (Dundee, UK). Results are represented in FIG. 1. The main targets are highlighted in FIG. 1B. The profiling” for “The profiling”

[8] = biological target: T2, NUAK1 (Homo sapiens, UniProt O60285); conditions: 1 microMolar in vitro, read-out: Percent of remaining activity
T2 construct: Reaction biology Corp (USA), service
T2 sequence (O60285 1-661): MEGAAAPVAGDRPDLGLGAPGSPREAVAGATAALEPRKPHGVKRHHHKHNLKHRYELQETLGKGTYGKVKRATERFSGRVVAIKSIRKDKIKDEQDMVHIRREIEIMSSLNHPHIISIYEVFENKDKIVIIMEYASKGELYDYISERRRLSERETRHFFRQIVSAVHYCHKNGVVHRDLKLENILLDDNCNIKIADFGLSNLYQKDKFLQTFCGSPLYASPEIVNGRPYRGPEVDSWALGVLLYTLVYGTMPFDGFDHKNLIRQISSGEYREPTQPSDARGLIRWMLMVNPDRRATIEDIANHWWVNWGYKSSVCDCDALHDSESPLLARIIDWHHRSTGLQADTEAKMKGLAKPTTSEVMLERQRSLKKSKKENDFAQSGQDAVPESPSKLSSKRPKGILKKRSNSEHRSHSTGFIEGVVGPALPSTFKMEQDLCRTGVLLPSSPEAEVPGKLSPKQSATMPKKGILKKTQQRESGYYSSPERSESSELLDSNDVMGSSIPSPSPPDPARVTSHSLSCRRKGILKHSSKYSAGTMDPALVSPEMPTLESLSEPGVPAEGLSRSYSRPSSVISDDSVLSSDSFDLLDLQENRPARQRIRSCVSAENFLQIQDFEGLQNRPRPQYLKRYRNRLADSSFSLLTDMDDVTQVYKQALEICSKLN
Protocol: as §3, with “The specificity of C14 was tested, in vitro, against 121 kinases representative of the kinome. Assays run in duplicate, at the concentration of 1 μM, were performed by MRC (Dundee, UK). Results are represented in FIG. 1. The main targets are highlighted in FIG. 1B. The profiling” for “The profiling”

[9] = biological target: IR (Homo sapiens, UniProt P06213); conditions: 1 microMolar in vitro, read-out: Percent of remaining activity
Sequence of IR (P06213 28-1382): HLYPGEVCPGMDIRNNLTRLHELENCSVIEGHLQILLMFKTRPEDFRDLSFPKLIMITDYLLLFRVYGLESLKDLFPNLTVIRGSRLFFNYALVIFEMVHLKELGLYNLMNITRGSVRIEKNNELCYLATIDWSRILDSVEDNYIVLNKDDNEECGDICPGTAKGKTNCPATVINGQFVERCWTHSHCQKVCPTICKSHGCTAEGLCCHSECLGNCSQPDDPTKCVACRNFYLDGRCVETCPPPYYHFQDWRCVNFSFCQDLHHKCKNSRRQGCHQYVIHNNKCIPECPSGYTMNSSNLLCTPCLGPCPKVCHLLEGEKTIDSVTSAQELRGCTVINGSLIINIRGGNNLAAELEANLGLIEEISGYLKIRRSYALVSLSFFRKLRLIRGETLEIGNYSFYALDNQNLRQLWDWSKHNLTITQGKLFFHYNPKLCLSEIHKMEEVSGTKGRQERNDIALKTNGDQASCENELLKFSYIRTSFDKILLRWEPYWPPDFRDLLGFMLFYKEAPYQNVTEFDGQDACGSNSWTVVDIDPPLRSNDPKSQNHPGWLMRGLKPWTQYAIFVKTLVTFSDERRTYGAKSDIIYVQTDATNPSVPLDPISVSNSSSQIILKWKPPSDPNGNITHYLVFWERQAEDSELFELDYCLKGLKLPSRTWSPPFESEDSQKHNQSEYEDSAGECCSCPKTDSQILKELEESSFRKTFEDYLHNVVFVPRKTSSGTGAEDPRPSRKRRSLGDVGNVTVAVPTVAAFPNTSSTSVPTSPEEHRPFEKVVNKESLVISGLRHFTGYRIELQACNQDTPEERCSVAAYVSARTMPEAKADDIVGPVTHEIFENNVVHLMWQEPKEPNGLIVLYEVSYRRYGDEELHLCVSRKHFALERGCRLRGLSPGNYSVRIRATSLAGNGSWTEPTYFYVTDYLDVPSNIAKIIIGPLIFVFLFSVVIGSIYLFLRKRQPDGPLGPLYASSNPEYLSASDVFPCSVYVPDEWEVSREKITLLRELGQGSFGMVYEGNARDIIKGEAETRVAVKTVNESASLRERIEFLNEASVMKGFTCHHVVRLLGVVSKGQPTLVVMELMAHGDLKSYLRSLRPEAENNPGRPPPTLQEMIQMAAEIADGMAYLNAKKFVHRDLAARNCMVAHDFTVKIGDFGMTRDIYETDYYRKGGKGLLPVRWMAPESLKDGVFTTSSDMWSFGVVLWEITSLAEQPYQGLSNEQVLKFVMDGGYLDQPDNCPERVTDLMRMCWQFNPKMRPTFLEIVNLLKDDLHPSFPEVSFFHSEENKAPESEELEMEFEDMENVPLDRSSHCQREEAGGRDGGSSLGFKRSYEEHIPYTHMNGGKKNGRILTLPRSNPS
Protocol: as §3, with “The specificity of C14 was tested, in vitro, against 121 kinases representative of the kinome. Assays run in duplicate, at the concentration of 1 μM, were performed by MRC (Dundee, UK). Results are represented in FIG. 1. The main targets are highlighted in FIG. 1B. The profiling” for “The profiling”

[10] = biological target: Tak1 (Homo sapiens, UniProt O43318); conditions: 1 microMolar in vitro, read-out: Percent of remaining activity
Sequence of Tak1 (O43318 1-303 limits assumed): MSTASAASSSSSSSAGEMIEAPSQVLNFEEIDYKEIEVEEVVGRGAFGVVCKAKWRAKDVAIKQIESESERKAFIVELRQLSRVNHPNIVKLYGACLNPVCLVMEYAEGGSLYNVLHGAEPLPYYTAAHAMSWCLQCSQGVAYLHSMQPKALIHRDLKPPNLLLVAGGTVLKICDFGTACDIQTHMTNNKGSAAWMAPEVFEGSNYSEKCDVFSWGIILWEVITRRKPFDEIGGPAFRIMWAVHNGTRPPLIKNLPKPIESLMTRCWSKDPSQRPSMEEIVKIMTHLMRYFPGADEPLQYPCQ
Sequence of Tak1 (Q15750 437-504 partner limits assumed): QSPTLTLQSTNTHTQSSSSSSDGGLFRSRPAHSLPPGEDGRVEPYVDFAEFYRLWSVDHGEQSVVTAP
Protocol: as §3, with “The specificity of C14 was tested, in vitro, against 121 kinases representative of the kinome. Assays run in duplicate, at the concentration of 1 μM, were performed by MRC (Dundee, UK). Results are represented in FIG. 1. The main targets are highlighted in FIG. 1B. The profiling” for “The profiling”

[11] = biological target: IRAK4 (Homo sapiens, UniProt Q9NWZ3); conditions: 1 microMolar in vitro, read-out: Percent of remaining activity
Protocol: as §3, with “The specificity of C14 was tested, in vitro, against 121 kinases representative of the kinome. Assays run in duplicate, at the concentration of 1 μM, were performed by MRC (Dundee, UK). Results are represented in FIG. 1. The main targets are highlighted in FIG. 1B. The profiling” for “The profiling”

[12] = biological target: TrkA (Homo sapiens, UniProt P04629); conditions: 1 microMolar in vitro, read-out: Percent of remaining activity
Protocol: as §3, with “The specificity of C14 was tested, in vitro, against 121 kinases representative of the kinome. Assays run in duplicate, at the concentration of 1 μM, were performed by MRC (Dundee, UK). Results are represented in FIG. 1. The main targets are highlighted in FIG. 1B. The profiling” for “The profiling”

[13] = tested on: VEGFR; conditions: 1 microMolar in vitro
Protocol: as §3, with “The specificity of C14 was tested, in vitro, against 121 kinases representative of the kinome. Assays run in duplicate, at the concentration of 1 μM, were performed by MRC (Dundee, UK). Results are represented in FIG. 1. The main targets are highlighted in FIG. 1B. The profiling” for “The profiling”

[14] = biological target: STK33 (Homo sapiens, UniProt Q9BYT3); conditions: 1 microMolar in vitro, read-out: Percent of remaining activity
Sequence of STK33 (Q9BYT3 whole entry, species assumed): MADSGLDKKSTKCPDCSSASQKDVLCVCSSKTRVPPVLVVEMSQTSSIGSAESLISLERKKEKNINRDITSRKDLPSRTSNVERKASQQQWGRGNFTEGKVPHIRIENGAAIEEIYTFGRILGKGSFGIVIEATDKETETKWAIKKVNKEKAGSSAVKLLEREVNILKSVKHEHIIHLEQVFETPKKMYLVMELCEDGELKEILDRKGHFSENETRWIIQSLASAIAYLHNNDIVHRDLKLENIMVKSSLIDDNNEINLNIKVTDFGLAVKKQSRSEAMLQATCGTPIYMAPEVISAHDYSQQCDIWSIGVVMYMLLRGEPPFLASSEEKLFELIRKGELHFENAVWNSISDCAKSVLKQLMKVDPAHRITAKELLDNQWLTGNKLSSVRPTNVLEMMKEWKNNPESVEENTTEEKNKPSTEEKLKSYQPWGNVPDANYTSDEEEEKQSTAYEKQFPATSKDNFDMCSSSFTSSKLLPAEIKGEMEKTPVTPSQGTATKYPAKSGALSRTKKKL
Protocol: as §3, with “The specificity of C14 was tested, in vitro, against 121 kinases representative of the kinome. Assays run in duplicate, at the concentration of 1 μM, were performed by MRC (Dundee, UK). Results are represented in FIG. 1. The main targets are highlighted in FIG. 1B. The profiling” for “The profiling”

[15] = biological target: CAMKKb (Homo sapiens, UniProt Q96RR4); conditions: 1 microMolar in vitro, read-out: Percent of remaining activity
Protocol: as §3, with “The specificity of C14 was tested, in vitro, against 121 kinases representative of the kinome. Assays run in duplicate, at the concentration of 1 μM, were performed by MRC (Dundee, UK). Results are represented in FIG. 1. The main targets are highlighted in FIG. 1B. The profiling” for “The profiling”

[16] = biological target: MLK1 (Homo sapiens, UniProt P80192); conditions: 1 microMolar in vitro, read-out: Percent of remaining activity
Sequence of MLK1 (P80192 whole entry, species assumed): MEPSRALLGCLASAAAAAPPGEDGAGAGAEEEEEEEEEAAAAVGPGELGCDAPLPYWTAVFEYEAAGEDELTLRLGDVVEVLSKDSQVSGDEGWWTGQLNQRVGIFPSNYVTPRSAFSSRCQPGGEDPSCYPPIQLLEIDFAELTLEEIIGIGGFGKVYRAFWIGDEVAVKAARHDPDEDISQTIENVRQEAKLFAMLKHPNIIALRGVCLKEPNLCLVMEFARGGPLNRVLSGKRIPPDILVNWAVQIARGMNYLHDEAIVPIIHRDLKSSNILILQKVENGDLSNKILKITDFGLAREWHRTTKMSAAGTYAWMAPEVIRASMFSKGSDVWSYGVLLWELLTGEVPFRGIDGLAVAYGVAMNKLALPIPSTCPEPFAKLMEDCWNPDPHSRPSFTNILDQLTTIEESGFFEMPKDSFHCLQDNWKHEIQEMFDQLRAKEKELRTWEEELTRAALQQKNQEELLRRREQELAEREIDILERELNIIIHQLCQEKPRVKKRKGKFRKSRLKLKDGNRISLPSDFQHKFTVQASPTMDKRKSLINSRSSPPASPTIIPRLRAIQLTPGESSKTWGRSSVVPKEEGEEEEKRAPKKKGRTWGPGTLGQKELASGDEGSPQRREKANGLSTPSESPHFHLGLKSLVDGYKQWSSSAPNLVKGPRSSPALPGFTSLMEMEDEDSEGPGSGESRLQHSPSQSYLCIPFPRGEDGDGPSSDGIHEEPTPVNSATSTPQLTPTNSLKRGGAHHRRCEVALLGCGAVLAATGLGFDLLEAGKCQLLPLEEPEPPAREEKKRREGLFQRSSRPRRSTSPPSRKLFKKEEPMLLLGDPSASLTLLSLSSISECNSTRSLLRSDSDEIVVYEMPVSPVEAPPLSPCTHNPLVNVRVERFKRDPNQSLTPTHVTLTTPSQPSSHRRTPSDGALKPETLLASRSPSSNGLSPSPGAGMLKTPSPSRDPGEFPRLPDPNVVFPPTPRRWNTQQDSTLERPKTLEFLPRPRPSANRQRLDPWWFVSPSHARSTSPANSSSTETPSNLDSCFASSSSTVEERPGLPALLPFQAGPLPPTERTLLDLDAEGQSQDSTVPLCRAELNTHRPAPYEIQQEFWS
Protocol: as §3, with “The specificity of C14 was tested, in vitro, against 121 kinases representative of the kinome. Assays run in duplicate, at the concentration of 1 μM, were performed by MRC (Dundee, UK). Results are represented in FIG. 1. The main targets are highlighted in FIG. 1B. The profiling” for “The profiling”

[17] = biological target: Gck (Homo sapiens, UniProt Q12851); conditions: 1 microMolar in vitro, read-out: Percent of remaining activity
Protocol: as §3, with “The specificity of C14 was tested, in vitro, against 121 kinases representative of the kinome. Assays run in duplicate, at the concentration of 1 μM, were performed by MRC (Dundee, UK). Results are represented in FIG. 1. The main targets are highlighted in FIG. 1B. The profiling” for “The profiling”

[18] = biological target: Brsk1 (Homo sapiens, UniProt Q8TDC3); conditions: 1 microMolar in vitro, read-out: Percent of remaining activity
Protocol: as §3, with “The specificity of C14 was tested, in vitro, against 121 kinases representative of the kinome. Assays run in duplicate, at the concentration of 1 μM, were performed by MRC (Dundee, UK). Results are represented in FIG. 1. The main targets are highlighted in FIG. 1B. The profiling” for “The profiling”

[19] = compound at 1 μM, read-out: percentage of remaining activity of recombinant kinase
[20] = Chk1, compound at 1 μM, read-out: percentage of remaining activity of recombinant kinase
[21] = 1 microMolar in vitro, read-out: Percent of remaining activity

Sequence of Chk2 (O96017 whole entry, species assumed): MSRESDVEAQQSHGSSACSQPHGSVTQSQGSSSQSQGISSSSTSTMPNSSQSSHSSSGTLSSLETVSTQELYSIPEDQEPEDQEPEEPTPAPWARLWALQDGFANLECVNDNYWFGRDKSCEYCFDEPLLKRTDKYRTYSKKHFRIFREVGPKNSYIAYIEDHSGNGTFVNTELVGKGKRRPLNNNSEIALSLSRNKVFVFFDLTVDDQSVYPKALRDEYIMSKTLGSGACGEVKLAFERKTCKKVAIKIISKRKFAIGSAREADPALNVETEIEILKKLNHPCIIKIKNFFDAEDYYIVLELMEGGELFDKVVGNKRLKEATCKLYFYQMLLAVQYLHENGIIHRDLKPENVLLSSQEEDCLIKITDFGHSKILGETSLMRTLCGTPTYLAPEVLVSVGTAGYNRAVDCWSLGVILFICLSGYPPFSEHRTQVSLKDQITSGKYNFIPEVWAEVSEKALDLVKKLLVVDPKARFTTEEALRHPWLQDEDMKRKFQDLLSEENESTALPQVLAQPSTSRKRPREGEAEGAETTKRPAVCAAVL

CCc1c[nH]c(=O)c2c1[nH]c1ccc3cc(OC)ccc3c12 [Compound C1, reference compound] was tested, and the remaining activity at 1 µM [1, 19] was 6%, the remaining activity at 1 µM [2, 20] was 23% and the remaining activity at 1 µM [3, 19] was 19%.

For Cc1c[nH]c(=O)c2c1[nH]c1ccc3cc(OCCN(C)C)ccc3c12 [Compound C14, 3-(2-N,N-Dimethylaminoethoxy)-8-methyl-7H,10H-benzo[e]pyrido(4,3-b)indol-11-one], the “Percent of remaining activity” value [4] was 10%, the remaining activity at 1 µM [5] was 21% and the remaining activity at 1 µM [6] was 24%. It also gave a remaining activity at 1 µM [7] of 31%, a remaining activity at 1 µM [8] of 4% and a remaining activity at 1 µM [9] of 15%. It also gave a remaining activity at 1 µM [10] of 6%, a remaining activity at 1 µM [11] of 25% and a remaining activity at 1 µM [12] of 5%. For the same compound, the “Percent of remaining activity” value [13] was 16%, the remaining activity at 1 µM [14] was 31% and the remaining activity at 1 µM [15] was 22%. For the same compound, the remaining activity at 1 µM [16] was 27%, the remaining activity at 1 µM [17] was 11% and the remaining activity at 1 µM [18] was 22%. For the same compound, the remaining activity at 1 µM [1, 21] was 9%, the remaining activity at 1 µM [1, 19] was 9% and the remaining activity at 1 µM ([2]; CHK1, 1 microMolar in vitro, read-out: Percent of remaining activity) was 31%. It also gave a remaining activity at 1 µM [2, 20] of 31%, a remaining activity at 1 µM [3, 21] of 24% and a remaining activity at 1 µM [3, 19] of 24%.
